Entries after “also recorded” stand apart in the source; their conditions may differ. Ends that are not written are not given here.
Assays:
Nur-RE [1] = experiment: NurRE-luc reporter (three copies of Nur-RE upstream of minimal POMC promoter) in AtT-20 cells; assay type: cell-based; settings: CRH 10^−7M
Procedure: (§1) Transfections in AtT-20 cells were performed by lipofection (lipofectin, Gibco) using exponentially growing AtT-20 cells (7.5×10^5) in 35 mm Petri dishes. Cells were grown in DMEM with 10% fetal calf serum stripped with dextran-coated charcoal. Cells and media were harvested 16 h after lipofection. Each sample for lipofection contained a total of 1.5 μg DNA, including 300 ng reporter plasmid, 300 ng RSV-GH as internal control, 100 ng of pCMX-Nur77 expression vector, and total DNA was completed to 1.5 μg with pSP64. The POMC promoter constructs were described previously (Therrien et al., 1991, Mol. Cell. Biol. 11:3492-3503; Therrien et al., 1993, Cell. Biol. 13:2342-2353.). In particular, the NurRE and nGRE linker scanning replacement mutations were described previously as mutants 3 and 15 in a series of promoter mutations (Therrien et al., 1991, supra). DO 11.10 cells were electroporated using a Biorad instruments at 250 V, 960 μFarad, and 10 μg each of reporter plasmid and expression vectors. CRH (10^−7M) and forskolin (10^−7M) were used at maximally active concentrations, and anti-CD3 (clone 145-2C11) was used at 1 μg/ml to coat dishes. The expression plasmid for the Nur77 dominant negative mutant was used at 3 μg/dish. Data are presented as the means ± SEM of 3 to 5 experiments each performed in duplicate. […]

Nur77 mRNA = experiment: Northern blot of Nur77 mRNA in AtT-20 cells; assay type: cell-based
Procedure: Total RNA (20 μg) extracted from AtT-20 cells was used in Northern blot experiments performed as described previously (Lamonerie et al., 1996, Genes Dev. 10:1284-1295).

[2] = test system: rat POMC promoter (−480 to +63 bp); experiment: POMC promoter-luciferase reporter lipofected in AtT-20 cells; assay type: cell-based; settings: Dex 10^−7M
Procedure: as §1

Nur-RE [3] = experiment: NurRE-luc reporter cotransfection with Nur77 and GR in CV-1 cells; assay type: cell-based; settings: Dex 10^−7M, ratio 1/0
NBRE = experiment: NBRE-luc reporter, antagonism between Nur77 and Dex; assay type: cell-based; settings: data not shown
Procedure: Transfections in AtT-20 cells were performed by lipofection (Lipofectamine, Gibco) using exponentially growing AtT-20 cells (7.5×10^5) in 35 mm Petri dishes. Cells were grown in DMEM with 10% fetal calf serum stripped with dextrancoated charcoal (Drouin et al., 1976, Endocrinology 98:1528-1534). Cells and media were harvested 16 h after lipofection. Each sample for lipofection contained a total of 1.5 μg DNA, including 300 ng reporter plasmid, 300 ng RSV-GH as internal control, 100 ng of pCMX-Nur77 expression vector, and total DNA was completed to 1.5 μg with pSP64. Where indicated, CRH and Dex were added at 10^−7M. The POMC promoter constructs were described previously (Therrien et al., 1991, Mol. Cell. Biol. 11:3492-3503; Therrien et al., 1993, Mol. Cell. Biol. 13:2342-2353). In particular, the NurRE and nGRE linker scanning replacement mutations were described previously as mutants 3 and 15 in a series of promoter mutations (Therrien et al., 1991, supra). DO 11.10 cells ([…] in 0.35 ml SMEM) were electroporated using a Biorad instruments at 250 V, 960 μFarad, and 10 μq each of reporter plasmid and expression vectors. After electroporation, cells were plated in SMEM containing 5% fetal calf serum with or without 10^−7M Dex, antiCD3 (clone 145-2C11) was used at 1 μg/ml to coat dishes (Iwata et al., 1991, Eur. J. Pharmacol. 21:643-648). […]

[4] = target: Glucocorticoid receptor (GR) (UniProt P06536 P06536:1-795); experiment: EMSA; settings: tags: Promega TNT; label: 3'-end label (Klenow)
Glucocorticoid receptor (GR), sequence (P06536 whole entry, one chain of several): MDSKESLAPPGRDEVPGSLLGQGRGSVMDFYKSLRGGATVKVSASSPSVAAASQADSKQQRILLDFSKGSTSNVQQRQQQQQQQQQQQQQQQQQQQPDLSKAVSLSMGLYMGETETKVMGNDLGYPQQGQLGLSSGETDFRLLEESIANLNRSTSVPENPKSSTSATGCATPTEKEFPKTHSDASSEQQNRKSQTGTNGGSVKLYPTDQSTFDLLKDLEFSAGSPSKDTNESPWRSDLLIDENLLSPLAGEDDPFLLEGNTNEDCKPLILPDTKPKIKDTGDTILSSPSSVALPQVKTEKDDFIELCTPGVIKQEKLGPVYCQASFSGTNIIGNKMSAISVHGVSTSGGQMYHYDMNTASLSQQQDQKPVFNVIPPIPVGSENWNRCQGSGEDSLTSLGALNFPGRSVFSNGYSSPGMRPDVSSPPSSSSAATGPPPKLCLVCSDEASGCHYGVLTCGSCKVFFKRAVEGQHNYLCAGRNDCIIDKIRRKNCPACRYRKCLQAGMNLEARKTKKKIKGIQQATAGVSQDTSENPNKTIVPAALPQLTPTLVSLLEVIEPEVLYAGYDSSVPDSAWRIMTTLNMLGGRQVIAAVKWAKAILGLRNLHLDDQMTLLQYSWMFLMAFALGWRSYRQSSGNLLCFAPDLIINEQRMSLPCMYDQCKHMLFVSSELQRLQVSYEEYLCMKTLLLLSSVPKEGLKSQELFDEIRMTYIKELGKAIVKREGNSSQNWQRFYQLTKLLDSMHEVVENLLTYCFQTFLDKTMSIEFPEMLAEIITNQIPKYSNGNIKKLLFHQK

Nur77 (NGFI-B) [5] = target: T1, Nur77 (NGFI-B) (UniProt P12813 P12813:1-601); experiment: EMSA; binds as homodimer, apparently cooperative; DMS interference maps two inverted octamers 6 bp apart; settings: tags: Promega TNT SP6/T7, pCMX-Nur77; label: 3'-end label (Klenow)
T1 sequence (P12813 whole entry, one chain of several): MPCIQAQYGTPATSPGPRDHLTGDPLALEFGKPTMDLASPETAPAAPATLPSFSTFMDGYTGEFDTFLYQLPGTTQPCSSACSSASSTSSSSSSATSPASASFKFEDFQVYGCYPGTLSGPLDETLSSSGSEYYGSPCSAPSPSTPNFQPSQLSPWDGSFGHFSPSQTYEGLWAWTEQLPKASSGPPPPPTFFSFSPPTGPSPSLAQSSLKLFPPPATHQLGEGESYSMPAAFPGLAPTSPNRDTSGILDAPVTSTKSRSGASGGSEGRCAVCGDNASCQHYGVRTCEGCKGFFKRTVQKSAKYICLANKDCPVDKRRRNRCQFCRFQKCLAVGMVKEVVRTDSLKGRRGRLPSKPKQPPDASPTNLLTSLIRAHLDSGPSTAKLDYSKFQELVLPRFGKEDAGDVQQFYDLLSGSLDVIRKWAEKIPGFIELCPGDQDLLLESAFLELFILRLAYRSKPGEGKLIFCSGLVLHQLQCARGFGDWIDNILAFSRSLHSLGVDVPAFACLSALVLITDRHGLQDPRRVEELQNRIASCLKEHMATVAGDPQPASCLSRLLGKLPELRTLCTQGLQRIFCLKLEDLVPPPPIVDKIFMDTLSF
From the text: End-labeled coding (C) and non-coding (NC) strands of the Nur-RE were used for DMS interference of Nur77 binding. […] E) Binding of Nur77 to the wild-type and mutant Nur-RE. […] Methods. For gel retardation experiments, Nur-RE or NBRE oligonucleotides were 3'-end-labeled using Klenow polymerase and purified on polyacrilamide gels.
(§2) The interaction of Nur77 with Nur-RE was investigated directly in binding studies using in vitro translated Nur77.

Nur77 (NGFI-B) [6] = target: T1, Nur77 (NGFI-B); experiment: EMSA; binds as monomer; settings: tags: Promega TNT SP6/T7, pCMX-Nur77; label: 3'-end label (Klenow)
From the text: For gel retardation experiments, Nur-RE or NBRE oligonucleotides were 3'-end-labeled using Klenow polymerase and purified on polyacrilamide gels.
as §2

## Corticotropin Releasing Hormone (SEEPPISLDLTFHLLREVLEMARAEQLAQQAHSNRKLMEII; ends and bridges not checked; UniProt P06850 154-194, looked up) [CRH, hypothalamic hormone, major stimulus of pituitary ACTH secretion and of POMC transcription]
Nur-RE [1]
  response of Nur-RE reporter (oligomerized response element, construct 6) to CRH: greatly enhanced response
Nur77 mRNA; CRH 10^−7M
  induction of Nur77 mRNA/expression: rapidly Induced; also recorded: transient induction

## C[C@@H]1C[C@H]2[C@@H]3CCC4=CC(=O)C=C[C@]4(C)[C@@]3(F)[C@@H](O)C[C@]2(C)[C@@]1(O)C(=O)CO [Dex, dexamethasone]
[2]
  magnitude of the repression of POMC promoter/luciferase reporter: 2- to 3 fold
Nur77 mRNA; Dex 10^−7M with CRH 10^−7M
  reduction of the CRH induction of Nur77 mRNA: about 50%
Nur-RE [3]
  effect on Nur77 activation at the NurRE in the absence of GR: no effect
NBRE
  magnitude of Nur77/Dex antagonism on NBRE-luc reporter relative to NurRE-luc: about 40 fold less

B1: NurRE (POMC) (dsDNA)
DNA 1: GATCCTAGTGATATTTACCTCCAAATGCCAGGA
DNA 2: TCCTGGCATTTGGAGGTAAATATCACTAGGATC
[4]
  binding result: no binding
Nur77 (NGFI-B) [5]
  binding result: binds

B2: NBRE (dsDNA)
DNA 1: GATCCTCGTGCGAAAAGGTCAAGCGCTA
DNA 2: TAGCGCTTGACCTTTTCGCACGAGGATC
Nur77 (NGFI-B) [6]
  binding result: binds

— patent US6852538B1, “Nur-RE a response element which binds nur nuclear receptors and method of use therefor” (Institut de Recherches Cliniques de Montreal, priority 1996, dated 2005)
